Test results: US10597388B2, “Pyridazinone herbicides” (FMC CORPORATION, priority 2014, dated 2020)

Tests used:
Assay in all cases: Test C greenhouse herbicide test, pre- and postemergence
Format in all cases: in vivo
[1] = system: barnyardgrass (Echinochloa crus-galli)
How it was run: (§1)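 Preemergence: seeds sown in a loam soil–sand blend and sprayed with test chemicals in a non-phytotoxic solvent mixture containing surfactant. Postemergence: plants grown in peat-based medium and treated at 2 to 18 cm (1- to 4-leaf stage). After 13 to 15 d in a greenhouse, injury was visually rated 0–100 against controls.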

[2] = system: blackgrass (Alopecurus myosuroides)
How it was run: as §1

[3] = system: corn (Zea mays)
How it was run: as §1

[4] = system: crabgrass, large (large crabgrass, Digitaria sanguinalis)
How it was run: as §1

[5] = system: foxtail, giant (giant foxtail, Setaria faberii)
How it was run: as §1

[6] = system: galium (catchweed bedstraw, Galium aparine)
How it was run: as §1

[7] = system: johnsongrass (Sorghum halepense)
How it was run: as §1

[8] = system: lambsquarters (Chenopodium album)
How it was run: as §1

[9] = system: morningglory (Ipomoea coccinea)
How it was run: as §1

[10] = system: nutsedge, yellow (yellow nutsedge, Cyperus esculentus)
How it was run: as §1

[11] = system: oilseed rape (Brassica napus)
How it was run: as §1

[12] = system: pigweed (Amaranthus retroflexus)
How it was run: as §1

[13] = system: ragweed (common ragweed, Ambrosia elatior)
How it was run: as §1

[14] = system: ryegrass, Italian (Italian ryegrass, Lolium multiflorum)
How it was run: as §1

[15] = system: velvetleaf (Abutilon theophrasti)
How it was run: as §1

[16] = system: waterhemp (common waterhemp, Amaranthus rudis)
How it was run: as §1

[17] = Postemergence, 31 g ai/ha, scale 0 to 100 (0 no effect, 100 complete control)
[18] = Postemergence, 62 g ai/ha, 0 to 100 scale (0 no effect, 100 complete control)
[19] = Postemergence, 250 g ai/ha, scale 0 to 100, 0 is no effect, 100 is complete control
[20] = Preemergence, 31 g ai/ha, scale 0 to 100, 0 is no effect, 100 is complete control
[21] = Preemergence, 62 g ai/ha, scale 0 to 100, 0 is no effect, 100 is complete control
[22] = Preemergence, 125 g ai/ha, scale 0 to 100, 0 is no effect, 100 is complete control
[23] = Preemergence, 250 g ai/ha, scale 0 to 100 (0 no effect, 100 complete control)
[24] = postemergence, 125 g ai/ha, scale 0 to 100, 0 no effect, 100 complete control

## CSCC(=O)Oc1c(C)nn(C)c(=O)c1-c1cccc2ccccc12 [Compound 171]
[1]; [17]
  Plant response rating, Barnyardgrass: 15
[1]; [18]
  Barnyardgrass plant response rating: 35
[1]; [19]
  Plant response rating, Barnyardgrass: 60
[1]; [20]
  Plant response rating, Barnyardgrass: 5
[1]; [21]
  Plant response rating, Barnyardgrass: 35
[1]; [22]
  Plant response rating, Barnyardgrass: 75
[1]; [23]
  Barnyardgrass plant response rating: 95
[1]; [24]
  Barnyardgrass plant response rating: 40
[2]; [17]
  Plant response rating, Blackgrass: 5
[2]; [18]
  Blackgrass plant response rating: 30
[2]; [19]
  Plant response rating, Blackgrass: 55
[2]; [20]
  Plant response rating, Blackgrass: 30
[2]; [21]
  Plant response rating, Blackgrass: 40
[2]; [22]
  Plant response rating, Blackgrass: 45
[2]; [23]
  Blackgrass plant response rating: 90
[2]; [24]
  Blackgrass plant response rating: 40
[3]; [17]
  Plant response rating, Corn: 0
[3]; [18]
  Corn plant response rating: 0
[3]; [19]
  Plant response rating, Corn: 20
[3]; [20]
  Plant response rating, Corn: 0
[3]; [21]
  Plant response rating, Corn: 0
[3]; [22]
  Plant response rating, Corn: 0
[3]; [23]
  Corn plant response rating: 40
[3]; [24]
  Corn plant response rating: 10
[4]; [17]
  Plant response rating, Crabgrass, Large: 5
[4]; [18]
  Crabgrass, Large plant response rating: 20
[4]; [19]
  Plant response rating, Crabgrass, Large: 55
[4]; [20]
  Plant response rating, Crabgrass, Large: 0
[4]; [21]
  Plant response rating, Crabgrass, Large: 45
[4]; [22]
  Plant response rating, Crabgrass, Large: 60
[4]; [23]
  Crabgrass, Large plant response rating: 80
[4]; [24]
  Crabgrass, Large plant response rating: 40
[5]; [17]
  Plant response rating, Foxtail, Giant: 10
[5]; [18]
  Foxtail, Giant plant response rating: 25
[5]; [19]
  Plant response rating, Foxtail, Giant: 75
[5]; [24]
  Foxtail, Giant plant response rating: 50
[6]; [17]
  Plant response rating, Galium: 95
[6]; [18]
  Galium plant response rating: 95
[6]; [19]
  Plant response rating, Galium: 95
[6]; [20]
  Plant response rating, Galium: 90
[6]; [21]
  Plant response rating, Galium: 90
[6]; [22]
  Plant response rating, Galium: 98
[6]; [23]
  Galium plant response rating: 100
[6]; [24]
  Galium plant response rating: 95
[7]; [17]
  Plant response rating, Johnsongrass: 5
[7]; [18]
  Johnsongrass plant response rating: 5
[7]; [19]
  Plant response rating, Johnsongrass: 20
[7]; [20]
  Plant response rating, Johnsongrass: 0
[7]; [21]
  Plant response rating, Johnsongrass: 5
[7]; [22]
  Plant response rating, Johnsongrass: 10
[7]; [23]
  Johnsongrass plant response rating: 35
[7]; [24]
  Johnsongrass plant response rating: 15
[8]; [17]
  Plant response rating, Lambsquarters: 90
[8]; [18]
  Lambsquarters plant response rating: 95
[8]; [19]
  Plant response rating, Lambsquarters: 100
[8]; [20]
  Plant response rating, Lambsquarters: 98
[8]; [21]
  Plant response rating, Lambsquarters: 95
[8]; [22]
  Plant response rating, Lambsquarters: 95
[8]; [23]
  Lambsquarters plant response rating: 100
[8]; [24]
  Lambsquarters plant response rating: 98
[9]; [17]
  Plant response rating, Morningglory: 90
[9]; [18]
  Morningglory plant response rating: 100
[9]; [19]
  Plant response rating, Morningglory: 100
[9]; [20]
  Plant response rating, Morningglory: 85
[9]; [21]
  Plant response rating, Morningglory: 90
[9]; [22]
  Plant response rating, Morningglory: 95
[9]; [23]
  Morningglory plant response rating: 98
[9]; [24]
  Morningglory plant response rating: 100
[10]; [17]
  Plant response rating, Nutsedge, Yellow: 50
[10]; [18]
  Nutsedge, Yellow plant response rating: 75
[10]; [20]
  Plant response rating, Nutsedge, Yellow: 45
[10]; [21]
  Plant response rating, Nutsedge, Yellow: 55
[10]; [22]
  Plant response rating, Nutsedge, Yellow: 70
[10]; [23]
  Nutsedge, Yellow plant response rating: 90
[10]; [24]
  Nutsedge, Yellow plant response rating: 75
[11]; [17]
  Plant response rating, Oilseed Rape: 0
[11]; [18]
  Oilseed Rape plant response rating: 0
[11]; [19]
  Plant response rating, Oilseed Rape: 30
[11]; [20]
  Plant response rating, Oilseed Rape: 0
[11]; [21]
  Plant response rating, Oilseed Rape: 5
[11]; [22]
  Plant response rating, Oilseed Rape: 50
[11]; [23]
  Oilseed Rape plant response rating: 90
[11]; [24]
  Oilseed Rape plant response rating: 0
[12]; [17]
  Plant response rating, Pigweed: 60
[12]; [18]
  Pigweed plant response rating: 80
[12]; [19]
  Plant response rating, Pigweed: 100
[12]; [20]
  Plant response rating, Pigweed: 70
[12]; [21]
  Plant response rating, Pigweed: 60
[12]; [22]
  Plant response rating, Pigweed: 100
[12]; [23]
  Pigweed plant response rating: 100
[12]; [24]
  Pigweed plant response rating: 90
[13]; [17]
  Plant response rating, Ragweed: 75
[13]; [18]
  Ragweed plant response rating: 100
[13]; [19]
  Plant response rating, Ragweed: 100
[13]; [20]
  Plant response rating, Ragweed: 65
[13]; [21]
  Plant response rating, Ragweed: 80
[13]; [22]
  Plant response rating, Ragweed: 95
[13]; [24]
  Ragweed plant response rating: 100
[14]; [17]
  Plant response rating, Ryegrass, Italian: 90
[14]; [18]
  Ryegrass, Italian plant response rating: 95
[14]; [19]
  Plant response rating, Ryegrass, Italian: 95
[14]; [20]
  Plant response rating, Ryegrass, Italian: 90
[14]; [21]
  Plant response rating, Ryegrass, Italian: 95
[14]; [22]
  Plant response rating, Ryegrass, Italian: 95
[14]; [24]
  Ryegrass, Italian plant response rating: 95
[15]; [17]
  Plant response rating, Velvetleaf: 35
[15]; [18]
  Velvetleaf plant response rating: 70
[15]; [19]
  Plant response rating, Velvetleaf: 100
[15]; [20]
  Plant response rating, Velvetleaf: 70
[15]; [21]
  Plant response rating, Velvetleaf: 90
[15]; [22]
  Plant response rating, Velvetleaf: 95
[15]; [24]
  Velvetleaf plant response rating: 100
[16]; [17]
  Plant response rating, Waterhemp: 75
[16]; [18]
  Waterhemp plant response rating: 95
[16]; [19]
  Plant response rating, Waterhemp: 100
[16]; [20]
  Plant response rating, Waterhemp: 85
[16]; [21]
  Plant response rating, Waterhemp: 95
[16]; [22]
  Plant response rating, Waterhemp: 100
[16]; [24]
  Waterhemp plant response rating: 98
